Test results taken from patent US8198273B2, “Compounds and methods for kinase modulation, and indications therefor” (Plexxikon Inc., priority 2009, dated 2012).
pIC50: −log10 of the molar value.

Experiments:
[1] = test system: SKMEL2 melanoma cells (Ras mutation); test: SKMEL2 cell growth inhibition (ATPlite); type: cell-based; conditions: Homo sapiens, SK-MEL-2, 72 h; SKMEL2, 3 days incubation
Procedure, shortened: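 SKMEL2 cells seeded at 2,000 per well overnight, then exposed to an 8-point 1:3 compound titration (top 10 μM final) for 3 days at 37 °C. ATPlite luminescence used as a measure of cell number to derive IC50.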

[2] = test system: COLO205 colon adenocarcinoma cells (B-Raf V600E); test: COLO205 cell growth inhibition (ATPlite); type: cell-based; conditions: Homo sapiens, COLO 205, 72 h; COLO205, 3 days incubation
Procedure, shortened: (§1)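 Cells plated overnight, then exposed 3 days at 37° C to 8-point 1:3 compound dilutions topping at 10 μM final. Viability read as ATPlite luminescence, proportional to cell number; IC50 from luminescence versus concentration.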

CYP2D6 = CYP2D6 (Homo sapiens, UniProt P10635); test: CYP2D6 inhibition (fluorescent substrate); type: in vitro ADME; conditions: CYP2D6, AMMC substrate; read-out: Cyp IC50 2D6
Procedure, shortened: (§2)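 IC50 values come from plotting product fluorescence against compound concentration; inhibition lowers formation of the fluorescent metabolite. Ten-point twofold dilutions in co-factor mix were held 10 minutes at 37 °C before the enzyme reaction, also run at 37 °C.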

CYP2C9 = CYP2C9 (Homo sapiens, UniProt P11712); test: CYP2C9 inhibition (fluorescent substrate); type: in vitro ADME; conditions: CYP2C9, MFC substrate; read-out: Cyp IC50 2C9
Procedure, shortened: as §2

[3] = test system: A375 melanoma cells (B-Raf V600E); test: A375 cell growth inhibition (ATPlite); type: cell-based; conditions: Homo sapiens, A-375, 72 h; A375, 3 days incubation
Procedure, shortened: as §1

[4] = test system: SW620 colon adenocarcinoma cells (wild-type B-RAF); test: SW620 cell growth inhibition (ATPlite); type: cell-based; conditions: Homo sapiens, SW-620, 72 h; SW620, 3 days incubation
Procedure, shortened: as §1

Sequence of CYP2C9 (P11712 whole entry): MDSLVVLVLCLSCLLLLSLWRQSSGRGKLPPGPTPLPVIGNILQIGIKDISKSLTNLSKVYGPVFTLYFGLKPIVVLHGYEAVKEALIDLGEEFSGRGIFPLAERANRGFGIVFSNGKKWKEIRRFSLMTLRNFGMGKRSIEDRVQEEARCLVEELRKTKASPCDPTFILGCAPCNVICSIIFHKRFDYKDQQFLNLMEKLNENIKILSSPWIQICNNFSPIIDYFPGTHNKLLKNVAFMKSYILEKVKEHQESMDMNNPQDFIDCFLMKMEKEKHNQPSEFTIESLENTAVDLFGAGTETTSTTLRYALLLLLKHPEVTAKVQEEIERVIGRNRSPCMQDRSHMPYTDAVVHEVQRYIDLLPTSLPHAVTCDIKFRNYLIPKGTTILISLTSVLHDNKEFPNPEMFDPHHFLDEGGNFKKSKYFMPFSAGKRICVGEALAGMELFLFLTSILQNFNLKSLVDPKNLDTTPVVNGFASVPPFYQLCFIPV
Sequence of CYP2D6 (P10635 whole entry): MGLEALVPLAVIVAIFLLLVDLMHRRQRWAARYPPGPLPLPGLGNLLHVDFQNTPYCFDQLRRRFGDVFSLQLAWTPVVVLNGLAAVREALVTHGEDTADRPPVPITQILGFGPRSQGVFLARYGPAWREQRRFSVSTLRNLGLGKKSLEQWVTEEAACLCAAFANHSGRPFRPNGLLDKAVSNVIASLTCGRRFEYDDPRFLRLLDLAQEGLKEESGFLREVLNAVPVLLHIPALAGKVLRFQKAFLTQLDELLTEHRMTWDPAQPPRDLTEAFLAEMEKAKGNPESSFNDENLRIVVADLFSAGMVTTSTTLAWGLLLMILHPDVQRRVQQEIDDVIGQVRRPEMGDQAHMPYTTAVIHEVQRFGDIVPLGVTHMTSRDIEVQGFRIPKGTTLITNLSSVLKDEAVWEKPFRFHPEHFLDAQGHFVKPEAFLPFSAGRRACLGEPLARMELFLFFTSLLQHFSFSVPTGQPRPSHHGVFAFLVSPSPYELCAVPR

Row | pIC50 [1] | pIC50 [2] | pIC50 (CYP2D6) | pIC50 (CYP2C9) | pIC50 [3] | pIC50 [4] | Structure (SMILES)
1 | > 5.30 | > 7.00 | < 5.00 | < 5.00 | > 6.00 | > 5.00 | CCCS(=O)(=O)Nc1ccc(F)c(C(=O)c2c[nH]c3ncc(-c4ccc(S(=O)(=O)N5CCOCC5)cc4)cc23)c1F [P-2166, Propane-1-sulfonic acid (2,4-difluoro-3-{5-[4-(morpholine-4-sulfonyl)-phenyl]-1H-pyrrolo[2,3-b]pyridine-3-carbonyl}-phenyl)-amide]
2 | > 5.30 | > 7.00 | < 5.00 | 5.00 to 5.30 | > 6.00 | > 5.00 | CCCS(=O)(=O)Nc1ccc(F)c(C(=O)c2c[nH]c3ncc(-c4ccc(S(=O)(=O)NC)cc4)cc23)c1F [P-2167, 4-{3-[2,6-Difluoro-3-(propane-1-sulfonylamino)-benzoyl]-1H-pyrrolo[2,3-b]pyridin-5-yl}-N-methyl-benzenesulfonamide]
3 | > 5.30 | > 7.00 | < 5.00 | > 5.30 | > 6.00 | > 5.30 | CCCS(=O)(=O)Nc1ccc(F)c(C(=O)c2c[nH]c3ncc(-c4ccc(S(=O)(=O)NC5CC5)cc4)cc23)c1F [P-2168, N-Cyclopropyl-4-{3-[2,6-difluoro-3-(propane-1-sulfonylamino)-benzoyl]-1H-pyrrolo[2,3-b]pyridin-5-yl}-benzenesulfonamide]
4 | > 5.00 | > 6.00 | 5.00 to 5.30 | > 5.30 | > 6.00 | < 5.00 | CCCS(=O)(=O)Nc1ccc(F)c(C(=O)c2c[nH]c3ncc(-c4cn[nH]c4)cc23)c1F [P-2174, Propane-1-sulfonic acid {2,4-difluoro-3-[5-(1H-pyrazol-4-yl)-1H-pyrrolo[2,3-b]pyridine-3-carbonyl]-phenyl}-amide]
5 | > 5.00 | > 7.00 | < 5.00 | > 5.30 | > 6.00 | > 4.70 | CCCS(=O)(=O)Nc1ccc(F)c(C(=O)c2c[nH]c3ncc(-c4cnn(CCN5CCOCC5)c4)cc23)c1F [P-2177, Propane-1-sulfonic acid (2,4-difluoro-3-{5-[1-(2-morpholin-4-yl-ethyl)-1H-pyrazol-4-yl]-1H-pyrrolo[2,3-b]pyridine-3-carbonyl}-phenyl)-amide]
6 | > 5.30 | > 7.00 | < 5.00 | 5.00 to 5.30 | > 7.00 | < 5.00 | CCCS(=O)(=O)Nc1ccc(F)c(C(=O)c2c[nH]c3ncc(-c4ccc(OCCCN(C)C)nc4)cc23)c1F [P-2178, Propane-1-sulfonic acid (3-{5-[6-(3-dimethylamino-propoxy)-pyridin-3-yl]-1H-pyrrolo[2,3-b]pyridine-3-carbonyl}-2,4-difluoro-phenyl)-amide]
7 | < 5.00 | > 7.00 | < 5.00 | 5.00 to 5.30 | > 7.00 | > 4.70 | CCCS(=O)(=O)Nc1ccc(F)c(C(=O)c2c[nH]c3ncc(-c4ccc(S(C)(=O)=O)cc4)cc23)c1F [P-2183, Propane-1-sulfonic acid {2,4-difluoro-3-[5-(4-methanesulfonyl-phenyl)-1H-pyrrolo[2,3-b]pyridine-3-carbonyl]-phenyl}-amide]
8 | < 5.00 | > 7.00 | < 5.00 | > 5.30 | > 7.00 | < 5.00 | CCCS(=O)(=O)Nc1ccc(F)c(C(=O)c2c[nH]c3ncc(-c4ccc(S(=O)(=O)N(C)C)cc4)cc23)c1F [P-2185, 4-{3-[2,6-Difluoro-3-(propane-1-sulfonylamino)-benzoyl]-1H-pyrrolo[2,3-b]pyridin-5-yl}-N,N-dimethyl-benzenesulfonamide]

Row | Structure (SMILES) | pIC50 [1] | pIC50 [2] | pIC50 (CYP2D6) | pIC50 (CYP2C9) | pIC50 [3] | pIC50 [4]
9 | CCCS(=O)(=O)Nc1ccc(F)c(C(=O)c2c[nH]c3ncc(-c4ccc(NS(C)(=O)=O)cc4)cc23)c1F [P-2165, Propane-1-sulfonic acid {2,4-difluoro-3-[5-(4-methanesulfonylamino-phenyl)-1H-pyrrolo[2,3-b]pyridine-3-carbonyl]-phenyl}-amide] | > 5.00 | > 6.00 | < 5.00 | 5.00 to 5.30 | > 6.00 | > 5.00
